For data set [1], the target named is T1, human CYP2A6 (Homo sapiens, UniProt P11509).
T1 sequence (P11509 with tags, fused parts or gaps limits assumed): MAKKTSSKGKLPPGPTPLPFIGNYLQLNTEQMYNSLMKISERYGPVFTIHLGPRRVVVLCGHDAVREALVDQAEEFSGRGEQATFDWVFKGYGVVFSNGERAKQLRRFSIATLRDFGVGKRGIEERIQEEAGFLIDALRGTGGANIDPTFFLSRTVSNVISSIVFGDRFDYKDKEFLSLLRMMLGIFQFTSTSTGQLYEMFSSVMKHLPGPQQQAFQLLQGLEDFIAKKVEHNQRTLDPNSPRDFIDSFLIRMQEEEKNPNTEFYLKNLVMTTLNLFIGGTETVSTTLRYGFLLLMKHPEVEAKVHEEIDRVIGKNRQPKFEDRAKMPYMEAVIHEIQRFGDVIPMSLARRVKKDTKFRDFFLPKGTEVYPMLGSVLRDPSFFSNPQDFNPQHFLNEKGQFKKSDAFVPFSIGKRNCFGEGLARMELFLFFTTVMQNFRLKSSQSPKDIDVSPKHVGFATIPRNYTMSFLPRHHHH
Nature of the data set: Spectral ligand binding assay. Particulars: for Kd: Kd 2A6, spectral titration, ≥ = minimal Kd value; for Spectral shift type 2A6: UV/Vis difference spectra.

The test system of data set [2] is CYP2A6 / CYP2A13. In words: Spectral ligand binding assay. Also noted: species or system human. Particulars: human, Selectivity Kd (2A6)/ Kd (2A13), ratio of the CYP2A6 value to the CYP2A13 value.
For data set [3], the target named is T2, human CYP2A13 (Homo sapiens, UniProt Q16696).
T2 sequence (Q16696 25-494): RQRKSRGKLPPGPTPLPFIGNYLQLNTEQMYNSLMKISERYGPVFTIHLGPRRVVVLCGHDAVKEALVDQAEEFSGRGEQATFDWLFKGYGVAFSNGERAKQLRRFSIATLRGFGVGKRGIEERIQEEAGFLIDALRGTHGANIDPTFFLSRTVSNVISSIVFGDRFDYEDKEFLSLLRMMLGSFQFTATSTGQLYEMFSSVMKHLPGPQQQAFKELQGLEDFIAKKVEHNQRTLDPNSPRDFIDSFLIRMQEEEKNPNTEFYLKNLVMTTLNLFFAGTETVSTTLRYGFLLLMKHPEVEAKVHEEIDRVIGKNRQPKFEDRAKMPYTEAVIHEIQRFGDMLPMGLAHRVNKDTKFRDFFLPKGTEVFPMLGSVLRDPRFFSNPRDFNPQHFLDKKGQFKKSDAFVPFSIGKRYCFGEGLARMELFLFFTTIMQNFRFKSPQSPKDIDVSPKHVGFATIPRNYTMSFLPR
Nature of the data set: Spectral ligand binding assay. Particulars: for Kd: Kd 2A13, spectral titration, ≥ = minimal Kd value; for Spectral shift type 2A13: UV/Vis difference spectra.

Data set [4] deals with human CYP2A13. In words: Spectral ligand binding assay. Particulars: ratio of the CYP2A6 value to the CYP2A13 value.
Data set [5] concerns the target T1, human CYP2A6. Nature of the data set: Coumarin metabolism assay.
Data set [6] has as its system CYP2A6 / CYP2A13. Nature of the data set: Coumarin metabolism assay. Particulars: human, pH 7.4, probe coumarin (7-hydroxylation), Selectivity Ki (2A6)/ Ki (2A13), ratio of the CYP2A6 value to the CYP2A13 value.
The target in data set [7] is T3, human CYP2A13 (Homo sapiens, UniProt Q16696).
T3 sequence (Q16696 with tags, fused parts or gaps limits assumed): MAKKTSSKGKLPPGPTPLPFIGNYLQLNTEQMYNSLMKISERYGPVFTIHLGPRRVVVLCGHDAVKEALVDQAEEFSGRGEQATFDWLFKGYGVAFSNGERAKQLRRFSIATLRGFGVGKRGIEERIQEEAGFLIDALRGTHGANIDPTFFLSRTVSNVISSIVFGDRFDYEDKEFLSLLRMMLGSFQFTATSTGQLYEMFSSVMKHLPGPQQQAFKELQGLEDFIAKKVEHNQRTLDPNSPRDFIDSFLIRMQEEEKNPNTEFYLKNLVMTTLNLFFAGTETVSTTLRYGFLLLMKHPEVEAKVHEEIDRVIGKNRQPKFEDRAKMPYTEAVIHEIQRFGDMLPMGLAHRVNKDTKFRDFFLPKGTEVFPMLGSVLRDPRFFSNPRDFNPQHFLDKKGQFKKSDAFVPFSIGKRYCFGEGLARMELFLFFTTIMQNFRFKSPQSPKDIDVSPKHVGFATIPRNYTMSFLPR
In words: Coumarin metabolism assay.

Data set [8] deals with human CYP2A13. In words: Coumarin metabolism assay. Particulars: ratio of the CYP2A6 value to the CYP2A13 value.
In data set [9] the test system is NNK-induced tumors. Particulars: rats; reduced from 70% without inhibitor; cited from earlier work.

A value given as a limit tells only on which side of the number the result lay.

Take `Cc1cccc(Cl)c1CN1CCOCC1` [Compound 9, 4-(2-chloro-6-methylbenzyl)morpholine]: in [1], the Kd was 515 µM and the “Spectral shift type 2A6” value is given as “I”. Moreover, the selectivity ratio in data set [2] is greater than 400. In data set [3], the Kd stood at 1.1 µM and the “Spectral shift type 2A13” value was “I”. In [4], the “Selectivity Kd (2A6)/ Kd (2A13)” value amounted to 468. This molecule came in with a Ki in data set [5] of 296 µM. In addition, the selectivity ratio at 10 min in data set [6] is 15. Further, the Ki in data set [7] came out at 19.7 ± 1.2 µM.

As to `Clc1cccc(CN2CCOCC2)c1Cl` [Compound 12, 4-(2,3-dichlorobenzyl)morpholine], the Kd was no less than 305 µM in data set [1] and 30.8 ± 8.1 µM in data set [3]. Besides, the “Spectral shift type 2A6” value in data set [1] is listed as “I”. The selectivity ratio in [2] was no less than 9.9. For the same molecule, in data set [3], the “Spectral shift type 2A13” value is reported as “I”. Besides, the values for the Ki in data set [5] and in [7] were 836 µM and 88.9 µM, respectively. For the same molecule, the selectivity ratio at 10 min in [6] was roughly 9. For the same molecule, the “Selectivity Ki (2A6)/ Ki (2A13)” value in [8] is 9.4.

In the case of `Clc1ccc(CN2CCOCC2)c(Cl)c1` [Compound 13, 4-(2,4-dichlorobenzyl)morpholine], the Kd is no less than 198 µM in data set [1] and 34.2 µM in data set [3]. The “Spectral shift type 2A6” value in data set [1] is given as “I”. Also, the selectivity ratio in [2] is no less than 5.8. Also, the “Spectral shift type 2A13” value in data set [3] is recorded as “I”. The Ki was found to be 995 µM in [5] and 113 ± 14 µM in data set [7]. Further, the selectivity ratio at 10 min in data set [6] is roughly 9. Further, the “Selectivity Ki (2A6)/ Ki (2A13)” value in data set [8] was 8.9.

For the molecule `Clc1ccccc1CN1CCSCC1` [Compound 18, 4-(2-chlorobenzyl)thiomorpholine], in data set [2], the selectivity ratio is 18. In addition, in data set [3], the Kd is 8.3 ± 4.1 µM and the “Spectral shift type 2A13” value was “I”. Besides, in data set [4], the “Selectivity Kd (2A6)/ Kd (2A13)” value was found to be 18.6. For the same molecule, the Ki in data set [5] turned out to be 483 µM. For the same molecule, the “Mode of inhibition 2A6” value in data set [5] (coumarin substrate) is recorded as “mixed inhibition”. Further, the “α (mixed inhibition) 2A6” value in [5] (coumarin substrate, mixed model inhibition) was 3.1. Also, the selectivity ratio at 10 min in data set [6] came out at 8. The molecule further came in with a Ki in data set [7] of 59 µM. For the same molecule, in data set [8], the “Selectivity Ki (2A6)/ Ki (2A13)” value is recorded as 8.2.

Take `CC(c1ccccc1Cl)N1CCOCC1` (stereo not shown) [Compound 23, 4-(1-(2-chlorophenyl)ethyl)morpholine]: the Kd in [1] was no less than 538 µM; in [3] it was 7.6 ± 2.8 µM. For the same molecule, the “Spectral shift type 2A6” value in data set [1] is on record as “I”. In data set [2], the selectivity ratio was no less than 70.8. The “Spectral shift type 2A13” value in data set [3] is reported as “I”. The Ki worked out at 98.5 µM in data set [5] and 15.9 µM in data set [7]. In addition, the selectivity ratio at 10 min in data set [6] was found to be 6.2.

Consider `S=C=NCCc1ccccc1` [PEITC, phenethyl isothiocyanate], for which, in [9], the NNK-induced tumors is 5%.

In general, Kd refers to the constant that tells how readily two partners part at equilibrium. Read a high Kd as a looser complex. Broadly, the Ki is the dissociation constant of the complex between target and ligand, obtained from inhibition or displacement. A high value points to lower affinity.

These data come from PMC3781598 (Pharmaceutical research, 2013).
